{"source": "patent US11085022B2", "about": "(priority 2014, dated 2021)", "key": {"ear swelling model mice": {"system": "ear swelling model mice", "assay": "Degree of ear swelling in ear swelling model mice", "type": "in vivo", "details": "15 mg/kg; compared with the physiological saline group; difference in the weight of the ears", "method": "48 inflammation model mice were randomized to 4 groups, each group having 12 animals. […] A control group having 12 mice with primary tumor was also set. […] All the animals were administered at days 1, 2, 3, 4, 6, 8, and 10 after surgery, and a total of 7 administrations were presented. Groups given with the neutrophil granulocytes of the same density and the physiological saline of the same volume were also set and used as a blank control. The mice were administrated for 3 consecutive days, and then sacrificed by cervical vertebra dislocation after the 3 administrations. Round specimens were punched from the same portion of the left and the right ears by a 7 mm punch and weighed on an analytical balance. The degree of ear swelling was indicated by the difference in the weight of the ears, and the anti-inflammatory effects of the drugs were compared, as shown in FIG. 15."}, "[1]": {"system": "adjuvant arthritis model mice", "assay": "Osteoarthritis index score in adjuvant arthritis model mice", "type": "in vivo", "details": "15 mg/kg, 7 administrations; compared with the physiological saline group", "method": "(§1) Adjuvant arthritis mouse model: The BCG vaccine was inactivated for 1 hr in a water bath at 80° C., and ground and mixed fully with autoclaved paraffin, to prepare a 10 mg/ml complete Freund adjuvant (CFA). 0.1 ml CFA was intracutaneously injected into the metatarsal in the right rear foot of the mice for inflammation induction."}, "[2]": {"assay": "In-vivo distribution and paw targeting in adjuvant arthritis model mice", "details": "mouse; for concentration at 0.5 h / concentration at 1 h / concentration at 2 h / concentration at 4 h / concentration at 8 h / concentration at 12 h: 15 mg/kg, iv ibuprofen 15 mg/kg", "method": "as §1\n(§2) 72 mice with inflammation were randomized to 2 groups, each group having 36 animals. Before administration, the mice were fasted, but allowed to free access to water overnight. […] 0.167 h, 0.5 h, 1 h, 2 h, 4 h, 8 h, 12 h, 24 h, 48 h, 72 h, 96 h, and 120 h after administration, the eyeballs were removed to collect the blood, and then the mice were sacrificed. The heart, liver, spleen, kidney, and the metatarsal tissue in the right rear foot were removed, washed with physiological saline, and weighed after the residual physiological saline was aspirated off with filter paper.\n(§3) The tissue samples (heart, liver, spleen, kidney, and metatarsal in the right rear foot) from the mice with inflammation were weighed, placed in a blood collection tube, added with 2 mL physiological saline, and dispersed by a tissue homogenizer at a high speed, to give a tissue homogenate. 200 μL acetonitrile was added to 200 μL of each tissue homogenate, vortexed for 5 min, and centrifuged for 10 min at 10000×g.\nThe paw targeting efficiency (Te) refers to the ratio of AUCs of the same preparation in the inflammatory site, that is, the paw, and in other tissues. […] The larger the Te is, the higher the selectivity of the preparation for the non-specific inflammatory site (the metatarsal in the right rear foot) will be, as compared with the selectivity for other comparative tissues."}, "[3]": {"assay": "In-vivo distribution and ear targeting in ear swelling model mice", "details": "male, mouse, 15 mg/kg", "method": "Ear swelling mouse model: Round pieces of filter paper that were 7 mm in diameter and soaked with dimethyl benzene were tightly attached for 15 s to the right ears of clean-grade male mice weighed 18-22 g.\nas §2, with “ear tissues” for “the metatarsal tissue in the right rear foot”\nas §3, with “ear)” for “metatarsal in the right rear foot)”\nThe ear targeting efficiency (Te) refers to the ratio of AUCs of the same preparation in the ear and in other tissues. […]"}, "Streptococcus pneumoniae": {"system": "Streptococcus pneumoniae", "assay": "Survival time of streptococcal pneumonia model mice", "type": "in vivo", "details": "10 mg/kg, 7 administrations", "method": "48 inflammation model mice were randomized to 4 groups, each group having 12 animals. […] All the animals were administered at days 1, 2, 3, 4, 6, 8, and 10 after surgery, and a total of 7 administrations were presented. Groups given with the neutrophil granulocytes of the same density and the physiological saline of the same volume were also set and used as a blank control."}}}
{"smiles": "CC(C)Cc1ccc(C(C)C(=O)O)cc1", "note": "(centres unmarked) [ibuprofen]", "values": [{"measurement": "degree of ear swelling", "setting": "ear swelling model mice", "value": "no obvious improvement"}, {"measurement": "time at which the peak score occurs", "setting": "[1]", "value": "prolonged somewhat"}, {"measurement": "organ(s) with the largest distribution", "setting": "[2]", "value": "liver"}, {"measurement": "concentration at 0.5 h", "setting": "[2]; Distribution in Heart", "value": 6350, "unit": "ng/g"}, {"measurement": "concentration at 1 h", "setting": "[2]; Distribution in Heart", "value": 4240, "unit": "ng/g"}, {"measurement": "concentration at 2 h", "setting": "[2]; Distribution in Heart", "value": 2990, "unit": "ng/g"}, {"measurement": "concentration at 4 h", "setting": "[2]; Distribution in Heart", "value": 1870, "unit": "ng/g"}, {"measurement": "concentration at 8 h", "setting": "[2]; Distribution in Heart", "value": 550, "unit": "ng/g"}, {"measurement": "concentration at 12 h", "setting": "[2]; Distribution in Heart", "value": 340, "unit": "ng/g"}, {"measurement": "concentration at 0.5 h", "setting": "[2]; Distribution in Kidney", "value": 2790, "unit": "ng/g"}, {"measurement": "concentration at 1 h", "setting": "[2]; Distribution in Kidney", "value": 3900, "unit": "ng/g"}, {"measurement": "concentration at 2 h", "setting": "[2]; Distribution in Kidney", "value": 2680, "unit": "ng/g"}, {"measurement": "concentration at 4 h", "setting": "[2]; Distribution in Kidney", "value": 1910, "unit": "ng/g"}, {"measurement": "concentration at 8 h", "setting": "[2]; Distribution in Kidney", "value": 620, "unit": "ng/g"}, {"measurement": "concentration at 12 h", "setting": "[2]; Distribution in Kidney", "value": 450, "unit": "ng/g"}, {"measurement": "concentration at 0.5 h", "setting": "[2]; Distribution in Liver", "value": 11900, "unit": "ng/g"}, {"measurement": "concentration at 1 h", "setting": "[2]; Distribution in Liver", "value": 10000, "unit": "ng/g"}, {"measurement": "concentration at 2 h", "setting": "[2]; Distribution in Liver", "value": 8320, "unit": "ng/g"}, {"measurement": "concentration at 4 h", "setting": "[2]; Distribution in Liver", "value": 7370, "unit": "ng/g"}, {"measurement": "concentration at 8 h", "setting": "[2]; Distribution in Liver", "value": 6330, "unit": "ng/g"}, {"measurement": "concentration at 12 h", "setting": "[2]; Distribution in Liver", "value": 2000, "unit": "ng/g"}, {"measurement": "concentration at 0.5 h", "setting": "[2]; Distribution in Spleen", "value": 6010, "unit": "ng/g"}, {"measurement": "concentration at 1 h", "setting": "[2]; Distribution in Spleen", "value": 3990, "unit": "ng/g"}, {"measurement": "concentration at 2 h", "setting": "[2]; Distribution in Spleen", "value": 2420, "unit": "ng/g"}, {"measurement": "concentration at 4 h", "setting": "[2]; Distribution in Spleen", "value": 1980, "unit": "ng/g"}, {"measurement": "concentration at 8 h", "setting": "[2]; Distribution in Spleen", "value": 1210, "unit": "ng/g"}, {"measurement": "concentration at 12 h", "setting": "[2]; Distribution in Spleen", "value": 670, "unit": "ng/g"}, {"measurement": "concentration at 0.5 h", "setting": "[2]; Distribution in paw", "value": 430, "unit": "ng/g"}, {"measurement": "concentration at 1 h", "setting": "[2]; Distribution in paw", "value": 370, "unit": "ng/g"}, {"measurement": "concentration at 2 h", "setting": "[2]; Distribution in paw", "value": 210, "unit": "ng/g"}, {"measurement": "concentration at 1 h", "setting": "[3]", "value": 3990, "unit": "ng/g"}]}
{"smiles": "C[C@H]1COc2c(N3CCN(C)CC3)c(F)cc3c(=O)c(C(=O)O)cn1c23", "note": "[levofloxacin]", "values": [{"measurement": "survival time", "setting": "Streptococcus pneumoniae", "value": "about 21 days"}]}
